For assay [1], the target named is T1, α-1A adrenoceptor (dog prostate) (Homo sapiens, UniProt P35348).
T1 construct: from tissue; host or cells: canine prostate strips
T1 sequence (P35348 1-466): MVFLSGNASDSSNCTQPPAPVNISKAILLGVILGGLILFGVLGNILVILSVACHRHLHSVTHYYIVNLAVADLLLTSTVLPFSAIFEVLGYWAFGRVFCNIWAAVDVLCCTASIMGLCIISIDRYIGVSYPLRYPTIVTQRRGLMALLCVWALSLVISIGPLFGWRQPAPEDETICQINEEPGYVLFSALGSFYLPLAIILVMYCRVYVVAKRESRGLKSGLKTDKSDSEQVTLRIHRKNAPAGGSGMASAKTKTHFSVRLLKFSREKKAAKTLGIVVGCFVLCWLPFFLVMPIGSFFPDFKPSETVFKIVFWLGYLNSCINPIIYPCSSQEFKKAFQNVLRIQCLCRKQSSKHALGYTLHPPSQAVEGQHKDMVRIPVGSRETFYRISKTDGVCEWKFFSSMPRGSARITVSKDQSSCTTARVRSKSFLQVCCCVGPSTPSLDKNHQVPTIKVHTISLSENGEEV
The experiment in a line: Functional antagonism of phenylephrine-induced contraction of canine prostate strips. It counts as cell-based, dog (canine). The conditions noted are these: vs phenylephrine-induced contraction, Schild plot. From the text:
(§1) Canine prostate strips were used in vitro as previously described (Hieble, J. P., Boyce, A. J. and Caine, M., Fed. Proc., 45: 2609-2614 (1986)), to determine antagonist potencies against phenylephrine-induced contractions.
(§2) Functional assays indicative of pharmacologically defined α-1 adrenoceptors were used to further characterize compounds. Inhibition of phenylephrine (PE)-induced contraction of canine prostate smooth muscle can be correlated with α-1A adrenoceptor activation. […] For each of these models, agonist dose response curves were repeated against increasing concentrations of test agent to derive a Schild plot [log ([…]) against log (molarity of test agent)] to determine the pA2.

Assay [2] deals with T2, α-1B adrenoceptor (rat spleen) (Rattus norvegicus, UniProt P15823).
T2 construct: PE-induced contraction of rat spleen; from tissue; host or cells: isolated rat spleen
T2 sequence (P15823 1-515): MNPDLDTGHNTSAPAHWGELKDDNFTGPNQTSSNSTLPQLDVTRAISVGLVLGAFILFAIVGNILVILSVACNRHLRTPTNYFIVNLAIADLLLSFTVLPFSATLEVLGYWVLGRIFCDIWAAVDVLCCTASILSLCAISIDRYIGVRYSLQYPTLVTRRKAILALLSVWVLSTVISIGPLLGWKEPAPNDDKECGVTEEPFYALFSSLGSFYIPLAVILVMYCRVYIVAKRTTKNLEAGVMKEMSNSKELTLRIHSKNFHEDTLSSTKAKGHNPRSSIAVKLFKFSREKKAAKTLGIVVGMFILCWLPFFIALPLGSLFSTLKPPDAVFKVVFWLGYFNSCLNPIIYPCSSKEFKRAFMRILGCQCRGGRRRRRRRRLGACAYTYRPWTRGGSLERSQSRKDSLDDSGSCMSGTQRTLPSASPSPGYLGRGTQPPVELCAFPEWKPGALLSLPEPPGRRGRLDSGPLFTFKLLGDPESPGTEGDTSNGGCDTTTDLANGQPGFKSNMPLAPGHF
The experiment in a line: Functional antagonism of phenylephrine-induced contraction of rat spleen. In kind it is cell-based. The conditions noted are these: vs phenylephrine-induced contraction, Schild plot; for Kb: read-out: pA2 Rat Spleen [α-1B] (converted).
Excerpt: as §2

For assay [3], the target named is T3, α-1A adrenoceptor (rat vas deferens) (Rattus norvegicus, UniProt P43140).
T3 construct: PE-induced contraction of rat vas deferens; from tissue; host or cells: isolated rat vas deferens
T3 sequence (P43140 1-466): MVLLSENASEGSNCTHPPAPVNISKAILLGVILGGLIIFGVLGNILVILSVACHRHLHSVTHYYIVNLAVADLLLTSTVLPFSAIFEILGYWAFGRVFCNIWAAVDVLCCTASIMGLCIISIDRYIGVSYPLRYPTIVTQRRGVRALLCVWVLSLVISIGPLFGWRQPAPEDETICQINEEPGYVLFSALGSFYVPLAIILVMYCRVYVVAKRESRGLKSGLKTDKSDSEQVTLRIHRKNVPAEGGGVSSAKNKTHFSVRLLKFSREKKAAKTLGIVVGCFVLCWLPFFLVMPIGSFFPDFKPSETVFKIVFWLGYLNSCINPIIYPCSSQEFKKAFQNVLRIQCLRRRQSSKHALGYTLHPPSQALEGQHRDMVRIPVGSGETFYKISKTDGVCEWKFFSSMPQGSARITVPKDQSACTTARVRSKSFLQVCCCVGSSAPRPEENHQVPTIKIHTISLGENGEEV
Description: Functional antagonism of phenylephrine-induced contraction of rat vas deferens. In kind it is cell-based. The conditions noted are these: vs phenylephrine-induced contraction, Schild plot; for Kb: read-out: pA2 Rat Vas Deferens [α-1A] (converted).
Excerpt: as §2

The target of assay [4] is T4, α-1A adrenoceptor (dog prostate).
T4 construct: from tissue; host or cells: canine prostate strips
The experiment in a line: Functional antagonism of phenylephrine-induced contraction of canine prostate strips. It counts as cell-based, dog (canine). The conditions noted are these: vs phenylephrine-induced contraction, Schild plot; read-out: pA2 Dog Prostate [α-1A] (converted).
Excerpt: as §1, §2

For a further assay, the system named is BPH patients. The conditions noted are these: longer term studies; cited from earlier work.

Where a name gives a salt, the structure may show the parent alone.

`COc1cccc2c1CC[C@H]1CN(CCn3c(=O)[nH]c4cc(C)c(C)cc4c3=O)C[C@@H]21` [Example 68, hydrochloride]: in assay [1], the “pA2 Dog Prostate [α-1A]” value is on record as 8.28.

In the case of `COc1cccc2c1CC[C@@H]1CN(CCn3c(=O)[nH]c4ccccc4c3=O)C[C@H]21` (relative stereo) [Example 1, 3-[2-(cis-9-Methoxy-2,3,3a,4,5,9b-hexahydro-[1H]-benz[e]isoindol-1-yl)ethyl]-[1H,3H]-quinazoline-2,4(1H,3H)-dione hydrochloride], the “pA2 Dog Prostate [α-1A]” value in assay [1] amounted to 9.29. Also, the “pA2 Rat Spleen [α-1B]” value in assay [2] is 8. Moreover, the “pA2 Rat Vas Deferens [α-1A]” value in assay [3] is listed as 8.49.

On to `COc1cc2[nH]c(=O)n(CCN3C[C@@H]4CCc5c(OC)cccc5[C@@H]4C3)c(=O)c2cc1OC` (relative stereo) [Example 10, hydrochloride], for which, in assay [2], the Kb is 129 nM.

On to `COc1cc2[nH]c(=O)n(CCN3C[C@@H]4CCc5c(OC)cccc5[C@@H]4C3)c(=O)c2cc1OC` [Example 39, hydrochloride], for which the “pA2 Rat Spleen [α-1B]” value in assay [2] is listed as 7.52.

As to `COc1cccc2c1CC[C@H]1CN(CCn3c(=O)[nH]c4c(OC)cccc4c3=O)C[C@@H]21` (relative stereo) [Example 9, 3-[2-(cis-6-Methoxy-2,3,3a,4,5,9b-hexahydro-[1H]-benz[e]isoindol-1-yl)ethyl]-8-methoxy-quinazoline-2,4(1H,3H)-dione hydrochloride], the values for the Kb in assay [4], in assay [2] and in assay [3] were 0.407 nM, 8.91 nM and 2.4 nM, respectively.

Consider `COc1cccc2c1CC[C@H]1CN(CCn3c(=O)[nH]c4ccsc4c3=O)C[C@@H]21` (relative stereo) [Example 5, hydrochloride], for which the results for the Kb in assay [4], in assay [2] and in assay [3] were 0.692 nM, 4.37 nM and 6.46 nM, respectively.

In the case of `COc1cccc2c1CC[C@H]1CN(CCn3c(=O)[nH]c4sccc4c3=O)C[C@@H]21` [Example 13, hydrochloride], the Kb was 0.851 nM in assay [4], 4.27 nM in assay [2] and 7.59 nM in assay [3].

With `O=C(NC1CCN(CCc2c[nH]c3ccccc23)CC1)c1ccccc1` [indoramin], the “improvement in urinary flow rates and subjective symptom scores” value with BPH patients was “significant improvements in urinary flow rates and subjective symptom scores”.

For the compound `COc1cc2ncn(CCN3C[C@@H]4CCc5c(OC)cccc5[C@@H]4C3)c(=O)c2cc1OC` [Example 42, dihydrochloride], the Kb in assay [2] was 39.8 nM; in assay [3], 5.75 nM.

In the case of `CCCOC(=O)c1ccc2c(=O)n(CCN3C[C@@H]4CCc5c(OC)cccc5[C@@H]4C3)c(=O)[nH]c2c1` [Example 72, hydrochloride], the “pA2 Dog Prostate [α-1A]” value in assay [1] stood at 8.57.

Consider `COc1cccc2c1CC[C@H]1CN(CCn3c(=O)[nH]c4c(-c5ccccc5)csc4c3=O)C[C@@H]21` (relative stereo) [Example 31, 3-[2-(cis-6-Methoxy-2,3,3a,4,5,9b-hexahydro-[1H]-benz[e]isoindol-1-yl)ethyl]-7-phenylthieno[3.2-d]pyrimidine-2,4(1H,3H)-dione methanesulfonate], for which, in assay [1], the “pA2 Dog Prostate [α-1A]” value was 8.63.

As to `COc1cccc2c1CC[C@H]1CN(CCn3c(=O)[nH]c4c(OC)c(OC)ccc4c3=O)C[C@@H]21` [Example 81, hydrochloride], in assay [1], the “pA2 Dog Prostate [α-1A]” value is listed as 9.45. Further, the “pA2 Rat Spleen [α-1B]” value in assay [2] is on record as 8.15. Further, in assay [3], the “pA2 Rat Vas Deferens [α-1A]” value amounted to 8.9.

For the compound `CCc1cccc2c1CC[C@H]1CN(CCn3c(=O)[nH]c4cc(OC)c(OC)cc4c3=O)C[C@@H]21` [Example 83, hydrochloride], the values for the Kb in assay [4], in assay [2] and in assay [3] were 11.2 nM, 120 nM and 8.51 nM, respectively.

Consider `COc1cccc2c1CC[C@H]1CN(CCn3c(=O)[nH]c4sccc4c3=O)C[C@@H]21` (relative stereo) [Example 3, hydrochloride], for which the Kb in assay [4] was 2.09 nM; in assay [2], 12.3 nM; in assay [3], 4.68 nM.

`COc1cc2nc(N3CCN(C(=O)C4COc5ccccc5O4)CC3)nc(N)c2cc1OC` (stereo not drawn) [doxazosin]: the “improvement in urinary flow rates and subjective symptom scores” value with BPH patients was “significant improvements in urinary flow rates and subjective symptom scores”.

Regarding `COc1cccc2c1CC[C@H]1CN(CCn3c(=O)[nH]c4c(C)csc4c3=O)C[C@@H]21` (relative stereo) [Example 2, hydrochloride], the Kb was 0.692 nM in assay [4], 6.92 nM in assay [2] and 3.98 nM in assay [3].

With `COc1cccc2c1CC[C@H]1CN(CCn3c(=O)[nH]c4cccc(C)c4c3=O)C[C@@H]21` (relative stereo) [Example 12, hydrochloride], the Kb was 21.4 nM in assay [4], 6.76 nM in assay [2] and 8.51 nM in assay [3].

On to `CCOc1ccc2c(=O)n(CCN3C[C@@H]4CCc5c(OC)cccc5[C@@H]4C3)c(=O)[nH]c2c1C` [Example 78, 3-[2-((3aR,9bR)cis-6-Methoxy-2,3,3a,4,5,9b-hexahydro-[1H]-benz[e]isoindol-1I-yl)ethyl]-7-ethox-8-methyl-quinazoline-2,4(1H,3H|-dione hydrochloride], for which the “pA2 Dog Prostate [α-1A]” value in assay [1] is given as 8.03.

Regarding `COc1cccc2c1CC[C@H]1CN(CCn3c(=O)[nH]c4c(C)c(C)ccc4c3=O)C[C@@H]21` [Example 80, 3-[2-((3aR.9bR)cis-6-Methoxy-2,3,3a,4,5,9b-hexahydro-[1H-benz[e]isoindol-1-yl)ethyl]-7.8-dimethylquinazoline-2,4(1H,3H)-dione hydrochloride], the Kb in assay [4] was 0.631 nM; in assay [2], 11.7 nM; in assay [3], 0.891 nM.

For `COc1cc2ncn(CCN3C[C@@H]4CCc5c(OC)cccc5[C@@H]4C3)c(=O)c2cc1OC` (relative stereo) [Example 33, 3-[2-(cis-6-Methoxy-2,3,3a,4,5,9b-hexahydro-[1H]-benz[e]isoindol-1-yl)ethyl]-6,7-dimethoxy-quinazoline-4(3H)-one dihydrochloride], the figures for the Kb in assay [2] and in assay [3] were 20.4 nM and 1.12 nM, respectively.

On to `COc1cccc2c1CC[C@H]1CN(CCn3c(=O)[nH]c4c(C)c(OC)ccc4c3=O)C[C@@H]21` [Example 77, 3-[2-((3aR,9bR)cis-6-Methoxy-2,3,3a,4,59b-hexahydro-[1H]-benz[e]isoindol-1-yl)ethyl]-7-methoxy-8-methyl-quinazoline-2(1H,3H)-dione hydrochloride], for which the Kb in assay [4] is 0.398 nM; in assay [2], 2.95 nM; in assay [3] it was 0.479 nM.

As for `COc1cccc2c1CC[C@H]1CN(CCn3c(=O)[nH]c4cscc4c3=O)C[C@@H]21` (relative stereo) [Example 8, 3-[2-(cis-6-Methoxy-2,3,3a,4,5,9b-hexahydro-[1H]-benz[e]isoindol-1-yl)ethyl]-thieno[3,4d]pyrimidine-2,4(1H,3H)-dione hydrochloride], the Kb was 0.457 nM in assay [4], 5.5 nM in assay [2] and 3.02 nM in assay [3].

These data come from US5792767A, “Bicyclic substituted hexahydrobenz [e] isoindole alpha-1 adrenergic antagonists” (priority 1995, dated 1998).
